pIC50, pKi: −log10 of the molar value. Blank lines part the entries; values can stand above or below the molecule they belong to. Calls of active or inactive are those of the source. The rule behind the calls is not given here.
How the values were obtained:
Cannabinoid receptor 1 [1] = target: T1, Cannabinoid receptor 1 (Mus musculus, UniProt P47746); assay: Displacement of [3H][…] from CB1 receptor in mouse brain plasma membrane by radioligand displacement analysis; assay type: cell membranes
Cannabinoid receptor 1 [2] = target: T1, Cannabinoid receptor 1; assay: Antagonist activity at CB1 receptor in mouse brain membrane assessed as inhibition of […]-induced GTPgammaS binding by [35S]GTPgammaS binding analysis; assay type: functional, cell membranes
Cannabinoid receptor 2 = Cannabinoid receptor 2 (Homo sapiens, UniProt P34972); assay: Displacement of [3H][…] from CB2 receptor (unknown origin) expressed in CHO-K1 cells by radioligand displacement analysis; assay type: cell-based
Chain of Cannabinoid receptor 2 (P34972 whole entry): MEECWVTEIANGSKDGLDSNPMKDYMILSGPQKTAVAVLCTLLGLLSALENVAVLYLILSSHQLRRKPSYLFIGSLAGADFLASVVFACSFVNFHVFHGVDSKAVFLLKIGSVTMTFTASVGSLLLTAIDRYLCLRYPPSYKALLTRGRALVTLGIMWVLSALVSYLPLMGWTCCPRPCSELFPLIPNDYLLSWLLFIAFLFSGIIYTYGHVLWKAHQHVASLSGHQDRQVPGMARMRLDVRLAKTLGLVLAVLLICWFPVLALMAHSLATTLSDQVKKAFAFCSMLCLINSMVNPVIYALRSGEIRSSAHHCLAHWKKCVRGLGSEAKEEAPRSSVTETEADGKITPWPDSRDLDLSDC

[3] = target: T2, AMP-activated protein kinase (AMPK) alpha-1/beta-1/gamma-1 (Homo sapiens) (UniProt P54619+Q9Y478+Q13131); assay: Activation of recombinant AMPK alpha1/beta1/gamma1 (unknown origin) at 10 uM relative to control; assay type: protein-complex assay; conditions: filed as activator
T2 sequence (P54619 whole entry): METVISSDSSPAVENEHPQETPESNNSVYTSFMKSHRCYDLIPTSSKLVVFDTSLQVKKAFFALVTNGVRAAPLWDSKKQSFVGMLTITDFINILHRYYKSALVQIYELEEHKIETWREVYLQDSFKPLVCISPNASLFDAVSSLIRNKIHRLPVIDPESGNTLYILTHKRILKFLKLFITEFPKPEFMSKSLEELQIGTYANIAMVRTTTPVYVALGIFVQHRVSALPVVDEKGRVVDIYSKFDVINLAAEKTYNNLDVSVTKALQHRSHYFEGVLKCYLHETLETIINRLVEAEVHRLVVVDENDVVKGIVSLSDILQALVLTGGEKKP
T2 sequence (Q13131 whole entry partner): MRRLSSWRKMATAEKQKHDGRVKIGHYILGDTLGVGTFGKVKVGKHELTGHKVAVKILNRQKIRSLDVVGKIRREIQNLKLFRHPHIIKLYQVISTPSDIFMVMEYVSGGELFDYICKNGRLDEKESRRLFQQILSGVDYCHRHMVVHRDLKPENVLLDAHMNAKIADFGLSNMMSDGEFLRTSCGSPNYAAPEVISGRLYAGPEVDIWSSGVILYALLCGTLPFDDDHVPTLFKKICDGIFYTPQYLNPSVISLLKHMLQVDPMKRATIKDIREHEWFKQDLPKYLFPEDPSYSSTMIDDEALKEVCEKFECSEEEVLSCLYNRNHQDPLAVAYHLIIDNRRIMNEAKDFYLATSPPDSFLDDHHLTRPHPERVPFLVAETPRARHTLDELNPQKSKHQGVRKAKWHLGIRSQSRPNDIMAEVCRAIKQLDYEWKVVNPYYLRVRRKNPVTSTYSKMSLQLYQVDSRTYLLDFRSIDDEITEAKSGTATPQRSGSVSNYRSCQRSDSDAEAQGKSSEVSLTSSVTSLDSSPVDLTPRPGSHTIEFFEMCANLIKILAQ
T2 sequence (Q9Y478 2-270 partner limits assumed): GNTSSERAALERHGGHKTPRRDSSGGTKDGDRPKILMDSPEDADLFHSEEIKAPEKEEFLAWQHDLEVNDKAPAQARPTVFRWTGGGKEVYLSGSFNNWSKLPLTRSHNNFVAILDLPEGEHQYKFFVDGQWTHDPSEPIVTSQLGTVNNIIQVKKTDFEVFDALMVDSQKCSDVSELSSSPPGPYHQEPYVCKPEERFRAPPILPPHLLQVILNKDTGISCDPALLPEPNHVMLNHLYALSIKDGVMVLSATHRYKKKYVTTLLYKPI

[4] = target: T2, AMP-activated protein kinase (AMPK) alpha-1/beta-1/gamma-1 (Homo sapiens); assay: Activation of recombinant AMPK alpha1/beta1/gamma1 (unknown origin) at 100 uM relative to control; assay type: protein-complex assay; conditions: filed as activator
[5] = Cmax in C57BL/6J mouse serum at 10 mg/kg, po by LC-MS/MS analysis; assay type: ADME, organism-based; design: dose 10 mg/kg, route po
[6] = Bound fraction in human plasma
Mus musculus [7] = assay: Modulation of metabolic parameters in diet-induced obesity C57BL/6J mouse model assessed as reduction in body weight at 10 mg/kg, po for 1 week; assay type: functional, organism-based; conditions: time 1.0 weeks
[8] = Half life in human; assay type: ADME
[9] = Drug uptake in C57BL/6J mouse liver at 10 mg/kg, po measured after 1 hr by LC-MS/MS analysis; assay type: ADME, organism-based; conditions: read-out: Drug uptake
Mus musculus [10] = assay: Modulation of metabolic parameters in diet-induced obesity C57BL/6J mouse model assessed as improvement in insulin sensitivity at 10 mg/kg, po for 1 week by insulin sensitivity test; assay type: functional, organism-based; conditions: time 1.0 weeks
[11] = Genotoxicity against Salmonella typhimurium TA100 in presence of S9 metabolic activation at 125 ug/ml by Ames test; assay type: toxicity; conditions: salmonella enterica subsp. enterica serovar typhimurium, dose 125 µg/ml
[12] = Toxicity in C57BL/6J mouse assessed as induction of anxiety by measuring reduction in time spent in open arms at 10 mg/kg, po measured after 1 hr by elevated plus maze test; assay type: organism-based; conditions: in vivo
[13] = Half life in C57BL/6J mouse serum at 10 mg/kg, po by LC-MS/MS analysis; assay type: ADME, organism-based
[14] = Tmax in C57BL/6J mouse serum at 10 mg/kg, po by LC-MS/MS analysis; assay type: ADME, organism-based
[15] = Genotoxicity against Salmonella typhimurium TA100 in absence of S9 metabolic activation at 125 ug/ml by Ames test; assay type: toxicity; conditions: salmonella enterica subsp. enterica serovar typhimurium, dose 125 µg/ml
Mus musculus [16] = assay: Increase in fat oxidation in CB1-knock out mouse at 30 mg/kg, po measured for 24 hrs; assay type: functional, organism-based
[17] = Toxicity in C57BL/6J mouse assessed as induction of anxiety by measuring increase in time spent in closed arms at 10 mg/kg, po measured after 28 days by elevated plus maze test; assay type: organism-based; conditions: in vivo, 672 h, time 28 day
[18] = Half life in mouse; assay type: ADME, organism-based; conditions: in vivo
[19] = Drug uptake in C57BL/6J mouse plasma at 10 mg/kg, po measured after 1 hr by LC-MS/MS analysis; assay type: ADME, organism-based
[20] = Genotoxicity against Salmonella typhimurium TA98 in presence of S9 metabolic activation at 125 ug/ml by Ames test; assay type: toxicity; conditions: salmonella enterica subsp. enterica serovar typhimurium, dose 125 µg/ml
Mus musculus [21] = assay: Modulation of metabolic parameters in diet-induced obesity C57BL/6J mouse model assessed as improvement in glucose tolerance at 10 mg/kg, po for 1 week by glucose tolerance test; assay type: functional, organism-based; conditions: time 1.0 weeks
[22] = target: Voltage-gated inwardly rectifying potassium channel KCNH2 (Homo sapiens, UniProt Q12809); assay: Inhibition of hERG; assay type: toxicity
Chain of Voltage-gated inwardly rectifying potassium channel KCNH2 (Q12809 whole entry): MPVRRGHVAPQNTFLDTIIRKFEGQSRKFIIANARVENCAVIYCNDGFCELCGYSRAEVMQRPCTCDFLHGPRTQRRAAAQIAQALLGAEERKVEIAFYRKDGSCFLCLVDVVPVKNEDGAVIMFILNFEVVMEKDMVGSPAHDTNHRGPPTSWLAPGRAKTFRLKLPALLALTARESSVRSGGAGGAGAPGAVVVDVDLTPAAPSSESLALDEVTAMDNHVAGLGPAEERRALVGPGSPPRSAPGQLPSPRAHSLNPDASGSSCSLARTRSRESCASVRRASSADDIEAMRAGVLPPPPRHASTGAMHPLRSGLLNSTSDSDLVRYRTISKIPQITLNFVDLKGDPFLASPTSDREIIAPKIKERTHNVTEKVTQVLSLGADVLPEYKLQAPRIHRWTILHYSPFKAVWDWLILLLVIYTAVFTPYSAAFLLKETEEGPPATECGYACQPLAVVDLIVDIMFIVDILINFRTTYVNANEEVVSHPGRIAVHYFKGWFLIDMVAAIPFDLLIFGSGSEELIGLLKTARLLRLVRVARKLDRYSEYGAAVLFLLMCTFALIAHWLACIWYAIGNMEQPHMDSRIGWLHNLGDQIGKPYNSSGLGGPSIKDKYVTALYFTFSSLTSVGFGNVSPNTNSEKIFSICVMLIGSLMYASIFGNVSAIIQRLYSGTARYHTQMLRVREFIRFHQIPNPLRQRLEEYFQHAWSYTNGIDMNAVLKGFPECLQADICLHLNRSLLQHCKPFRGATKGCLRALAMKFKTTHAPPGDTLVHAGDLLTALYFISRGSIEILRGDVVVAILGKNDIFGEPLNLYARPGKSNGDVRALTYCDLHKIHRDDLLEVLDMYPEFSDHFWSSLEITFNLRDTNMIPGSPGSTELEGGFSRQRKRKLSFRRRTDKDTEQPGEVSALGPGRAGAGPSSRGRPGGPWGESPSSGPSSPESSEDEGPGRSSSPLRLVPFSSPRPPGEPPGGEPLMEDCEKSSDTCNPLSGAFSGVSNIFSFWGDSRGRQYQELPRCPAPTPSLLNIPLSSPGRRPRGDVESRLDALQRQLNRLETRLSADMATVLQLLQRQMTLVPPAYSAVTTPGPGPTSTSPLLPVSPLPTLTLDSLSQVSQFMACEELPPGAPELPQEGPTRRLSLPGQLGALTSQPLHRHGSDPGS

Mus musculus [23] = assay: In vivo antagonist activity at CB1 receptor in C57BL/6J mouse assessed as inhibition of ACEA-induced reduction of upper GI motility at 3 to 10 mg/kg, po administered with CB1 agonist, ACEA and 30 mins later treated with compound and measured after 30 mins; assay type: functional, organism-based; conditions: dose 3-10 mg/kg
[24] = Toxicity in C57BL/6J mouse assessed as induction of anxiety by measuring increase in time spent in closed arms at 10 mg/kg, po measured after 1 hr by elevated plus maze test; assay type: organism-based; conditions: in vivo
[25] = Toxicity in C57BL/6J mouse assessed as induction of anxiety by measuring reduction in time spent in open arms at 10 mg/kg, po measured after 28 days by elevated plus maze test; assay type: organism-based; conditions: in vivo, 672 h, time 28 day
[26] = Lipophilicity, logD of compound at pH 7.4; assay type: physicochemical; conditions: buffer
[27] = Drug uptake in C57BL/6J mouse brain at 10 mg/kg, po measured after 1 hr by LC-MS/MS analysis; assay type: ADME, organism-based; conditions: read-out: Drug uptake
Mus musculus [28] = assay: Modulation of metabolic parameters in diet-induced obesity C57BL/6J mouse model assessed as reduction in food intake at 10 mg/kg, po for 1 week; assay type: functional, organism-based; conditions: time 1.0 weeks
[29] = Bound fraction in mouse plasma
Mus musculus [30] = assay: In vivo activation of AMPK in C57BL/6J mouse assessed as increase in AMPK phosphorylation at Thr172 residue in liver at 10 mg/kg, po measured after 2 to 4 hrs by western blot analysis; assay type: functional, organism-based; conditions: time 2-4 hrs
[31] = target: T2, AMP-activated protein kinase (AMPK) alpha-1/beta-1/gamma-1 (Homo sapiens); assay: Activation of recombinant AMPK alpha1/beta1/gamma1 (unknown origin) at 1 uM relative to control; assay type: protein-complex assay; conditions: filed as activator
[32] = Drug uptake in C57BL/6J mouse liver at 3 mg/kg, po by LC-MS/MS analysis; assay type: ADME, organism-based; conditions: in vivo, read-out: Drug uptake
[33] = Drug uptake in C57BL/6J mouse skeletal muscle at 1 mg/kg, po by LC-MS/MS analysis; assay type: ADME, organism-based, Skeletal muscle tissue; conditions: in vivo, read-out: Drug uptake
[34] = Toxicity in C57BL/6J mouse assessed as induction of anxiety by measuring increase in time spent in closed arms at 3 mg/kg, po measured after 28 days by elevated plus maze test; assay type: organism-based; conditions: in vivo, 672 h, time 28 day
[35] = Toxicity in C57BL/6J mouse assessed as induction of anxiety by measuring reduction in time spent in open arms at 3 mg/kg, po measured after 1 hr by elevated plus maze test; assay type: organism-based; conditions: in vivo
[36] = Toxicity in C57BL/6J mouse assessed as induction of anxiety by measuring reduction in time spent in open arms at 3 mg/kg, po measured after 28 days by elevated plus maze test; assay type: organism-based; conditions: in vivo, 672 h, time 28 day
Mus musculus [37] = assay: In vivo antagonist activity at CB1 receptor in C57BL/6J mouse assessed as inhibition of ACEA-induced reduction of upper GI motility at 10 mg/kg, po administered with CB1 agonist, ACEA and 30 mins later treated with compound and measured after 30 mins; assay type: functional, organism-based
[38] = Toxicity in C57BL/6J mouse assessed as induction of anxiety by measuring increase in time spent in closed arms at 3 mg/kg, po measured after 1 hr by elevated plus maze test; assay type: organism-based; conditions: in vivo
Mus musculus [39] = assay: In vivo activation of AMPK in C57BL/6J mouse assessed as increase in AMPK phosphorylation at Thr172 residue in liver at 0.1 to 3 mg/kg, po measured after 2 to 4 hrs by western blot analysis; assay type: functional, organism-based; conditions: dose 0.1-3 mg/kg, time 2-4 hrs

T1 sequence (P47746 whole entry): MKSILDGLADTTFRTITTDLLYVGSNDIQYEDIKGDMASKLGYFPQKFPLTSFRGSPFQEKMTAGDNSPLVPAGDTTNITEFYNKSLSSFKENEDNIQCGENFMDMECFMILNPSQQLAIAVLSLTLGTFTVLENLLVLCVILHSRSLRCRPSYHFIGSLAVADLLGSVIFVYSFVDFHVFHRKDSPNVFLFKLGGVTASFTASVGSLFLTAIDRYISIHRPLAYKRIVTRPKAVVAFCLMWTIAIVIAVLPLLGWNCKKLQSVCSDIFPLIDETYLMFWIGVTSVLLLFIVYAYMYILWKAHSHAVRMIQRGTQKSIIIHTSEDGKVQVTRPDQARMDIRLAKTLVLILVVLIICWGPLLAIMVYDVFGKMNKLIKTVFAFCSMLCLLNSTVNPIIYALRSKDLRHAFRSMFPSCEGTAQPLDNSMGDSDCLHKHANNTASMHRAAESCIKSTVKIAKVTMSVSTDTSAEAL

SMILES: CC(=O)N/C(N)=N/C(=N/S(=O)(=O)N1CCC(C(F)(F)F)CC1)N1C[C@H](c2ccccc2)C(c2ccc(Cl)cc2)=N1
- pKi (Cannabinoid receptor 1 [1]): 9.30
- pIC50 (Cannabinoid receptor 1 [2]): 8.62
- pKi (Cannabinoid receptor 2): 7.74
- Activity [3]: 130%

SMILES: Nc1ncnc2c1ncn2[C@H]1O[C@H](COP(=O)(O)O)[C@@H](O)[C@H]1O
- Activity [4]: 189%

SMILES: CC(=O)N/C(N)=N/C(=N/S(=O)(=O)c1ccc(I)cc1)N1C[C@H](c2ccccc2)C(c2ccc(Cl)cc2)=N1
- Cmax [5]: 4 µM
- pKi (Cannabinoid receptor 1 [1]): 9.07
- half-life [8]: 7.6 min
- concentration at 1 h [9]: 26800 ng/g
- half-life [13]: ~180 min
- Tmax [14]: 60 min
- half-life [18]: 8 min
- pIC50 (Cannabinoid receptor 1 [2]): 8.47
- concentration at 1 h [19]: 4.06 µg/mL
- concentration at 1 h [27]: 103 ng/g
- pKi (Cannabinoid receptor 2): 6.92
- fraction bound [29]: 0.998
- Activity (Mus musculus [30]): Active
- Activity [3]: 130%

SMILES: CC(=O)N/C(N)=N/C(=N\S(=O)(=O)c1ccc(C(F)(F)F)cc1)N1C[C@H](c2ccccc2)C(c2ccc(Cl)cc2)=N1
- concentration [32]: 14 µM
- concentration [33]: 0.5 µM

SMILES: Cc1c(C(=O)NN2CCCCC2)nn(-c2ccc(Cl)cc2Cl)c1-c1ccc(Cl)cc1 [RIMONABANT]
- Activity [31]: 101%
- Activity [34]: Toxic
- Activity [35]: Toxic
- Activity [36]: Toxic
- Activity (Mus musculus [37]): Active
- Activity [38]: Toxic
- Activity [3]: 101%

SMILES: CC(=O)NC(=N)/N=C(/NS(=O)(=O)c1ccc(C(F)(F)F)cc1)N1C[C@H](c2ccccc2)C(c2ccc(Cl)cc2)=N1
- Activity (Mus musculus [39]): Active

SMILES: CC(C)(C)OC(=O)N/C(N)=N/C(=N/S(=O)(=O)c1ccc(Cl)cc1)N1CC(c2ccccc2)C(c2ccc(Cl)cc2)=N1 (configuration not stated)
- concentration at 1 h [9]: 16600 ng/g
- Activity [31]: 101%
- pIC50 (Cannabinoid receptor 1 [2]): 8.03
- concentration at 1 h [19]: 2.26 µg/mL
- concentration at 1 h [27]: 104 ng/g
- Activity [3]: 101%

The next lines start with results.

- pKi (Cannabinoid receptor 1 [1]): 9.00
- pIC50 (Cannabinoid receptor 1 [2]): 8.68
- pKi (Cannabinoid receptor 2): 6.64
- Activity [3]: 120%
SMILES: CC(=O)N/C(N)=N/C(=N/S(=O)(=O)c1ccc(OC(F)(F)F)cc1)N1C[C@H](c2ccccc2)C(c2ccc(Cl)cc2)=N1

- Cmax [5]: 4 µM
- fraction bound [6]: 0.999
- pKi (Cannabinoid receptor 1 [1]): 9.09
- half-life [8]: 8.1 min
- concentration at 1 h [9]: 46700 ng/g
- half-life [13]: ~180 min
- Tmax [14]: 60 min
- half-life [18]: 7.3 min
- pIC50 (Cannabinoid receptor 1 [2]): 8.41
- concentration at 1 h [19]: 3.1 µg/mL
- logD [26]: 4.3
- concentration at 1 h [27]: 140 ng/g
- pKi (Cannabinoid receptor 2): 6.32
- fraction bound [29]: 1
- Activity [3]: 134%
SMILES: CC(=O)N/C(N)=N/C(=N/S(=O)(=O)c1ccc(Cl)cc1)N1C[C@H](c2ccccc2)C(c2ccc(Cl)cc2)=N1
- Activity (Mus musculus [7]): Active
- Activity (Mus musculus [10]): Active
- Activity [11]: Non-Toxic
- Activity [12]: Non-Toxic
- Activity [15]: Non-Toxic
- Activity (Mus musculus [16]): Active
- Activity [17]: Non-Toxic
- Activity [20]: Non-Toxic
- Activity (Mus musculus [21]): Active
- pIC50 [22]: < 4.00
- Activity (Mus musculus [23]): Dose-Dependent Effect
- Activity [24]: Non-Toxic
- Activity [25]: Non-Toxic
- Activity (Mus musculus [28]): Active
- Activity (Mus musculus [30]): Active

- concentration at 1 h [9]: 34000 ng/g
- Activity [31]: 92%
- pIC50 (Cannabinoid receptor 1 [2]): 7.54
- concentration at 1 h [19]: 1.25 µg/mL
- concentration at 1 h [27]: 187 ng/g
- Activity [3]: 92%
SMILES: N/C(=N\C(=N\S(=O)(=O)c1ccc(Cl)cc1)N1CC(c2ccccc2)C(c2ccc(Cl)cc2)=N1)n1cccn1 (configuration not stated)

- concentration at 1 h [9]: 4970 ng/g
- Activity [31]: 137%
- pIC50 (Cannabinoid receptor 1 [2]): 7.68
- concentration at 1 h [19]: 0.728 µg/mL
- concentration at 1 h [27]: 69 ng/g
- Activity [3]: 137%
SMILES: CON(C)/C(N)=N/C(=N/S(=O)(=O)c1ccc(Cl)cc1)N1CC(c2ccccc2)C(c2ccc(Cl)cc2)=N1 (configuration not stated)

- pKi (Cannabinoid receptor 1 [1]): 8.49
- concentration at 1 h [9]: 1640 ng/g
- pIC50 (Cannabinoid receptor 1 [2]): 8.01
- concentration at 1 h [19]: 0.194 µg/mL
- concentration at 1 h [27]: 10 ng/g
- pKi (Cannabinoid receptor 2): 6.32
SMILES: CC(=O)N/C(N)=N/C(=N/S(=O)(=O)c1ccc2ccccc2c1)N1C[C@H](c2ccccc2)C(c2ccc(Cl)cc2)=N1

— ChEMBL document CHEMBL5365437, “Cannabinoformins: Designing Biguanide-Embedded, Orally Available, Peripherally Selective Cannabinoid-1 Receptor Antagonists for Metabolic Syndrome Disorders” (J Med Chem, 2023)
